This passage reports Activity results from ChEMBL document CHEMBL2375284, “Novel hybrids of natural isochroman-4-one bearing N-substituted isopropanolamine as potential antihypertensive candidates” (Bioorg Med Chem, 2013).

The test system of data set [1] is Rattus norvegicus. Put plainly: Antihypertensive activity in rat spontaneous hypertensive model assessed as diastolic arterial blood pressure at 20 mg/kg, po measured at 0.5 hrs by tail-cuff method (reference value: 138.7 +/- 9.2 mmHg). The data set is classed as functional, Artery.
Data set [2] relates to Rattus norvegicus. Kind of data set: Toxicity in rat spontaneous hypertensive model assessed as heart rate at 20 mg/kg, po measured at 6 hrs by tail-cuff method (reference value: 405.1 +/- 24 bpm). The data set is classed as organism-based. Further details: dose 20 mg/kg, route oral. Particulars: in vivo.
Data set [3] deals with Rattus norvegicus. Put plainly: Antihypertensive activity in rat spontaneous hypertensive model assessed as mean arterial blood pressure at 20 mg/kg, po measured at 2 hrs by tail-cuff method (reference value: 157.41 +/- 9.62 mmHg). It counts as functional, Artery.
In data set [4] the test system is Rattus norvegicus. Put plainly: Antihypertensive activity in rat spontaneous hypertensive model assessed as systolic arterial blood pressure at 20 mg/kg, po measured at 0.5 hrs by tail-cuff method (reference value: 178.5 +/- 10.13 mmHg). It counts as functional, Artery.
In data set [5] the test system is Rattus norvegicus. Kind of data set: Antihypertensive activity in rat spontaneous hypertensive model assessed as mean arterial blood pressure at 20 mg/kg, po measured at 0.5 hrs by tail-cuff method (reference value: 156.2 +/- 7.21 mmHg). It counts as functional, Artery.
The subject of data set [6] is Rattus norvegicus. Kind of data set: Antihypertensive activity in rat spontaneous hypertensive model assessed as systolic arterial blood pressure at 20 mg/kg, po measured at 6 hrs by tail-cuff method (reference value: 176.7 +/- 15.21 mmHg). The data set is classed as functional, Artery.
Data set [7] deals with Rattus norvegicus. Kind of data set: Antihypertensive activity in rat spontaneous hypertensive model assessed as diastolic arterial blood pressure at 20 mg/kg, po measured at 8 hrs by tail-cuff method (reference value: 135.3 +/- 8.21 mmHg). It counts as functional, Artery.
Data set [8] deals with Rattus norvegicus. Put plainly: Antihypertensive activity in rat spontaneous hypertensive model assessed as mean arterial blood pressure at 20 mg/kg, po measured at 4 hrs by tail-cuff method (reference value: 154.4 +/- 20.1 mmHg). The data set is classed as functional, Artery.
Data set [9] relates to Rattus norvegicus. Kind of data set: Toxicity in rat spontaneous hypertensive model assessed as heart rate at 20 mg/kg, po measured at 4 hrs by tail-cuff method (reference value: 403.1 +/- 15.92 bpm). It counts as organism-based. Particulars: in vivo. Further details: dose 20 mg/kg, route oral.
For data set [10], the system named is Rattus norvegicus. Put plainly: Antihypertensive activity in rat spontaneous hypertensive model assessed as systolic arterial blood pressure at 20 mg/kg, po measured at 4 hrs by tail-cuff method (reference value: 172.9 +/- 10.21 mmHg). It counts as functional, Artery.
For data set [11], the system named is Rattus norvegicus. Kind of data set: Antihypertensive activity in rat spontaneous hypertensive model assessed as diastolic arterial blood pressure at 20 mg/kg, po measured at 2 hrs by tail-cuff method (reference value: 142.9 +/- 18.07 mmHg). The data set is classed as functional, Artery.
Data set [12] deals with Rattus norvegicus. Put plainly: Toxicity in rat spontaneous hypertensive model assessed as heart rate at 20 mg/kg, po measured at 1 hr by tail-cuff method (reference value: 403.9 +/- 12.41 bpm). It counts as organism-based. Further details: dose 20 mg/kg, route oral. The note with it: in vivo.
Data set [13] has as its system Rattus norvegicus. Kind of data set: Antihypertensive activity in rat spontaneous hypertensive model assessed as systolic arterial blood pressure at 20 mg/kg, po measured at 2 hrs by tail-cuff method (reference value: 172.6 +/- 17.3 mmHg). The data set is classed as functional, Artery.
For data set [14], the system named is Rattus norvegicus. Kind of data set: Antihypertensive activity in rat spontaneous hypertensive model assessed as diastolic arterial blood pressure at 20 mg/kg, po measured at 6 hrs by tail-cuff method (reference value: 141.2 +/- 7.34 mmHg). The data set is classed as functional, Artery.
The subject of data set [15] is Rattus norvegicus. Kind of data set: Antihypertensive activity in rat spontaneous hypertensive model assessed as mean arterial blood pressure at 20 mg/kg, po measured at 8 hrs by tail-cuff method (reference value: 155.8 +/- 11.54 mmHg). It counts as functional, Artery.
Data set [16] relates to Rattus norvegicus. Put plainly: Toxicity in rat spontaneous hypertensive model assessed as heart rate at 20 mg/kg, po measured at 2 hrs by tail-cuff method (reference value: 399.5 +/- 19.68 bpm). It counts as organism-based. Further details: dose 20 mg/kg, route oral. The note with it: in vivo.
Data set [17] deals with Rattus norvegicus. Put plainly: Antihypertensive activity in rat spontaneous hypertensive model assessed as mean arterial blood pressure at 20 mg/kg, po measured at 1 hr by tail-cuff method (reference value: 158.9 +/- 13.65 mmHg). The data set is classed as functional, Artery.
Data set [18] relates to Rattus norvegicus. Kind of data set: Antihypertensive activity in rat spontaneous hypertensive model assessed as diastolic arterial blood pressure at 20 mg/kg, po measured at 4 hrs by tail-cuff method (reference value: 141.4 +/- 7.11 mmHg). The data set is classed as functional, Artery.
In data set [19] the test system is Rattus norvegicus. Put plainly: Antihypertensive activity in rat spontaneous hypertensive model assessed as systolic arterial blood pressure at 20 mg/kg, po measured at 8 hrs by tail-cuff method (reference value: 174 +/- 12.1 mmHg). The data set is classed as functional, Artery.
The subject of data set [20] is Rattus norvegicus. Kind of data set: Toxicity in rat spontaneous hypertensive model assessed as heart rate at 20 mg/kg, po measured at 0.5 hrs by tail-cuff method (reference value: 406.5 +/- 13.15 bpm). Particulars: in vivo. The data set is classed as organism-based. Further details: dose 20 mg/kg, route oral.
Data set [21] deals with Rattus norvegicus. Put plainly: Antihypertensive activity in rat spontaneous hypertensive model assessed as mean arterial blood pressure at 20 mg/kg, po measured at 6 hrs by tail-cuff method (reference value: 155.8 +/- 7.97 mmHg). It counts as functional, Artery.
Data set [22] relates to Rattus norvegicus. Kind of data set: Antihypertensive activity in rat spontaneous hypertensive model assessed as systolic arterial blood pressure at 20 mg/kg, po measured at 1 hr by tail-cuff method (reference value: 181.2 +/- 16.37 mmHg). The data set is classed as functional, Artery.
Data set [23] deals with Rattus norvegicus. Kind of data set: Antihypertensive activity in rat spontaneous hypertensive model assessed as diastolic arterial blood pressure at 20 mg/kg, po measured at 1 hr by tail-cuff method (reference value: 146.2 +/- 13.19 mmHg). It counts as functional, Artery.
Data set [24] relates to Rattus norvegicus. Kind of data set: Toxicity in rat spontaneous hypertensive model assessed as heart rate at 20 mg/kg, po measured at 8 hrs by tail-cuff method (reference value: 397.2 +/- 24.87 bpm). Particulars: in vivo. The data set is classed as organism-based. Further details: dose 20 mg/kg, route oral.

Consider `CC(C)NCC(O)COc1cccc2ccccc12` (centres undefined) [PROPRANOLOL], for which the Activity with Rattus norvegicus [1] is reported as 127.2 mmHg; in the data set with Rattus norvegicus [2] it was 360.1 bpm; with Rattus norvegicus [3], 116.8 mmHg; in the data set on Rattus norvegicus [4], 168.7 mmHg; in the data set on Rattus norvegicus [5] it was 145 mmHg; in the data set on Rattus norvegicus [6], 161 mmHg. For the same compound, the Activity with Rattus norvegicus [7] was 116.9 mmHg; with Rattus norvegicus [8], 108.3 mmHg; with Rattus norvegicus [9], 349.6 bpm; in the data set with Rattus norvegicus [10], 158.4 mmHg; in the data set on Rattus norvegicus [11] it was 94.1 mmHg; in the data set with Rattus norvegicus [12] it was 339.9 bpm. Besides, the Activity in the data set on Rattus norvegicus [13] is on record as 160.6 mmHg; with Rattus norvegicus [14] it was 100.3 mmHg; in the data set on Rattus norvegicus [15] it was 132.6 mmHg; in the data set with Rattus norvegicus [16] it was 350.6 bpm; in the data set with Rattus norvegicus [17] it was 122.6 mmHg; in the data set with Rattus norvegicus [18], 88.3 mmHg. Further, the Activity with Rattus norvegicus [19] is reported as 163.9 mmHg; in the data set on Rattus norvegicus [20], 340 bpm; with Rattus norvegicus [21], 120.9 mmHg; in the data set on Rattus norvegicus [22], 156.8 mmHg; with Rattus norvegicus [23], 105.5 mmHg; with Rattus norvegicus [24], 362.3 bpm.
